Source: patent US20240092825A1, “CERTAIN CHEMICAL ENTITIES, COMPOSITIONS, AND METHODS” (priority 2021, published 2024)
Structures can show the parent of a compound that is named as a salt.

Key:
[1] = Long-term stability test of Crystalline Form I, storage at 25° C./60% RH (open); format: physicochemical; conditions: for Appearance / DSC / Purity / XRPD: 25° C./60% RH (open)
Procedure: (§1) X-ray powder diffraction (XRPD) patterns were obtained on a Bruker D8 Advance. A CuK source (=1.54179 angstrom) operating minimally at 40 kV and 40 mA scans each sample between 3 and 40 degrees 2-theta. The scanning rate is 10 degrees 2-theta per minute and the sample rotation speed is 15 revolutions per minute.
(§2) Differential scanning calorimetry analysis was carried out on a TA Instrument DSC unit (TA Q2000). Samples were heated in non-hermetic aluminum pans from ambient to 260° C. at 10° C./min.
(§3) Crystalline Form I was not changed after storage at 40° C./75% RH for 6 months, or storage at 25° C./60% RH for 36 months.

[2] = Accelerated stability test of Crystalline Form I, storage at 40° C./75% RH (open); format: physicochemical; conditions: for Appearance / DSC / Purity / XRPD: 40° C./75% RH (open)
Procedure: as §1, §2, §3

For `C[C@]12CC[C@H](OC(=O)N3CCNCC3)C[C@H]1CC[C@@H]1[C@@H]2CC[C@]2(C)[C@@H](c3ccc(=O)oc3)CC[C@]12O` [Crystalline Form I, (3S,5R,8R,9S,10S,13R,14S,17R)-14-hydroxy-10,13-dimethyl-17-(2-oxo-2H-pyran-5-yl)hexadecahydro-1H-cyclopenta[a]phenanthren-3-yl piperazine-1-carboxylate maleate], the Appearance ([1]; 0 month) was “White powder”, the DSC ([1]; 0 month) was 233.84° ° C and the Purity ([1]; 0 month) was 99.86%. The XRPD ([1]; 0 month) was “Form I”, the Appearance ([1]; 12 months) was “White powder” and the DSC ([1]; 12 months) was 234.41° ° C. The Purity ([1]; 12 months) was 99.87%, the XRPD ([1]; 12 months) was “Form I” and the Appearance ([1]; 24 months) was “White powder”. For the same compound, the DSC ([1]; 24 months) was 232.9° ° C, the Purity ([1]; 24 months) was 99.91% and the XRPD ([1]; 24 months) was “Form I”. For the same compound, the Appearance ([1]; 36 months) was “White powder”, the DSC ([1]; 36 months) was 233.6° ° C and the Purity ([1]; 36 months) was 100.00%. The XRPD ([1]; 36 months) was “Form I”, the “Change of crystalline form after storage” value ([1]; storage at 25° C./60% RH for 36 months) was “not changed” and the Appearance ([2]; 0 month) was “White powder”. For the same compound, the DSC ([2]; 0 month) was 233.84° ° C, the Purity ([2]; 0 month) was 99.86% and the XRPD ([2]; 0 month) was “Form I”. The Appearance ([2]; 6 months) was “White powder”, the DSC ([2]; 6 months) was 234.28° ° C and the Purity ([2]; 6 months) was 99.91%. The XRPD ([2]; 6 months) was “Form I” and the “Change of crystalline form after storage” value ([2]; storage at 40° C./75% RH for 6 months) was “not changed”.
